Values joined by “and” are separate entries in the source; they are usually repeats but may differ in a detail not shown here. Equal values may be shown once.
Assay: safety assessments (adverse events, NCI CTCAE)
Settings: for Treatment-related cardiovascular events: any grade
[1] = median follow-up of nearly 3 years
[2] = nonhematologic TRAE, all 165 patients
[3] = treatment-related CVE G 3/4, Accelerated phase n=38
[4] = treatment-related CVE G 3/4, Chronic phase n=127
[5] = treatment-related CVE G 3/4, Total n=165
[6] = treatment-related CVE any grade, Accelerated phase n=38
[7] = treatment-related CVE any grade, Chronic phase n=127
[8] = treatment-related CVE any grade, Total n=165

Structure (SMILES): Cc1ccc(C(=O)Nc2ccc(CN3CCN(C)CC3)c(C(F)(F)F)c2)cc1C#Cc1cnc2[nH]ncc2c1 [olverembatinib]
- Hematologic (TRAE any grades, Total n=165): 138 (83.6) n (%)
- Hyperbilirubinemia (TRAE any grades, Total n=165): 69 (41.8) n (%)
- Hyperglycemia (TRAE any grades, Total n=165): 43 (26.1) n (%)
- Hypertriglyceridemia (TRAE any grades, Total n=165): 95 (57.6) n (%)
- Hypoalbuminemia (TRAE any grades, Total n=165): 26 (15.8) n (%)
- Hypocalcemia (TRAE any grades, Total n=165): 64 (38.8) n (%)
- Hypokalemia (TRAE any grades, Total n=165): 42 (25.5) n (%)
- Hyponatremia (TRAE any grades, Total n=165): 38 (23.0) n (%)
- Increased alanine aminotransferase (TRAE any grades, Total n=165): 59 (35.8) n (%)
- Increased alkaline phosphatase (TRAE any grades, Total n=165): 21 (12.7) n (%)
- Increased aspartate aminotransferase (TRAE any grades, Total n=165): 59 (35.8) n (%)
- Increased creatine phosphokinase (TRAE any grades, Total n=165): 48 (29.1) n (%)
- Increased γ-glutamyl transferase (TRAE any grades, Total n=165): 47 (28.5) n (%)
- Leukopenia (TRAE any grades, Total n=165): 56 (33.9) n (%)
- Myalgia (TRAE any grades, Total n=165): 31 (18.8) n (%)
- Neutropenia (TRAE any grades, Total n=165): 26 (15.8) n (%)
- Nonhematologic (TRAE any grades, Total n=165): 165 (100.0) n (%)
- Pain in extremity (TRAE any grades, Total n=165): 21 (12.7) n (%)
- Proteinuria (TRAE any grades, Total n=165): 84 (50.9) n (%)
- Pyrexia (TRAE any grades, Total n=165): 30 (18.2) n (%)
- Rash (TRAE any grades, Total n=165): 27 (16.4) n (%)
- Sinus tachycardia (TRAE any grades, Total n=165): 30 (18.2) n (%)
- Skin pigmentation (TRAE any grades, Total n=165): 139 (84.2%) n (%) and 139 (84.2) n (%)
- Thrombocytopenia (TRAE any grades, Total n=165): 126 (76.4) n (%)
- Treatment-related adverse events (TRAE any grades, Total n=165): 165 (100.0) n (%)
- Adverse events resulting in dose interruption (Total n=165): 86 (52.1%) n (%) and 86 (52.1) n (%)
- Adverse events resulting in dose reduction (Total n=165): 50 (30.3%) n (%) and 50 (30.3) n (%)
- Adverse events resulting in treatment discontinuation (Total n=165): 13 (7.9) n (%)
- severe thrombocytopenia leading to dose reduction (all 165 patients): 15.8%
- Treatment-related cardiovascular events (Accelerated phase n=38): 9 (23.7) n (%)
- Treatment-related cardiovascular events (Chronic phase n=127): 44 (34.6) n (%)
- Treatment-related cardiovascular events (Total n=165): 53 (32.1%) n (%) and 53 (32.1) n (%)
- median time to temporary treatment suspension or dose reduction (for SAEs): 5 months
- patients requiring temporary treatment suspension or dose reduction (for SAEs): 75 (46.0%) n (%)
- myelosuppression, median duration (in vivo): 36 (7–718) days
- myelosuppression, median onset time (in vivo): 28 (4–676) days
- patients in whom CVEs were grade 1 or 2 (in vivo): 88.5%
- patients who received platelet transfusions (in vivo): 11.5%
- patients who received red blood cell transfusions (in vivo): 9.7%
- median duration of treatment interruptions (interruptions due to AEs): 56 days
- median number of treatment interruptions (interruptions due to AEs): 2
- incidence of arterial occlusive and venous thrombotic events [1]: 5.0%
- olverembatinib-related CVEs [1]: 32.0%
- median time to onset of nonhematologic TRAEs (most frequent nonhematologic TRAEs): 70 days
- Hyperbilirubinemia [2]: 41.8%
- Hypertriglyceridemia [2]: 57.6%
- Hypocalcemia [2]: 38.8%
- Proteinuria [2]: 50.9%
- elevated liver transaminases [2]: 35.8%
- patients with Fridericia-corrected QT interval exceeding 500 ms on treatment (patients with CVEs): None
- renal function according to estimated glomerular filtration rate (patients with persistent proteinuria): did not observe decreased renal function
- Anemia (serious AE (SAE)): 6.0%
- Atrial fibrillation (serious AE (SAE)): 2.0%
- Pneumonia (serious AE (SAE)): 3.0%
- Pyrexia (serious AE (SAE)): 2.0%
- Thrombocytopenia (serious AE (SAE)): 9.0%
- acute MI, cholelithiasis, pericardial effusion, upper-respiratory-tract infection, and urinary-tract infection (each) (serious AE (SAE)): 1%
- Acute coronary syndrome [3]: 0 n (%)
- Acute myocardial infarction [3]: 0 n (%)
- Angina pectoris [3]: 0 n (%)
- Arrhythmia [3]: 0 n (%)
- Arteriosclerosis coronary artery [3]: 0 n (%)
- Atrial fibrillation [3]: 1 (2.6) n (%)
- Atrial tachycardia [3]: 0 n (%)
- Cardiomegaly [3]: 0 n (%)
- Cerebral infarction [3]: 0 n (%)
- Lacunar infarction [3]: 0 n (%)
- Palpitations [3]: 0 n (%)
- Pericardial effusion [3]: 1 (2.6) n (%)
- Retinal-vein occlusion [3]: 0 n (%)
- Supraventricular extrasystoles [3]: 0 n (%)
- Ventricular extrasystoles [3]: 0 n (%)
- Acute coronary syndrome [4]: 1 (0.8) n (%)
- Acute myocardial infarction [4]: 1 (0.8) n (%)
- Angina pectoris [4]: 0 n (%)
- Arrhythmia [4]: 1 (0.8) n (%)
- Arteriosclerosis coronary artery [4]: 1 (0.8) n (%)
- Atrial fibrillation [4]: 1 (0.8) n (%)
- Atrial tachycardia [4]: 0 n (%)
- Cardiomegaly [4]: 0 n (%)
- Cerebral infarction [4]: 1 (0.8) n (%)
- Lacunar infarction [4]: 1 (0.8) n (%)
- Palpitations [4]: 0 n (%)
- Pericardial effusion [4]: 1 (0.8) n (%)
- Retinal-vein occlusion [4]: 2 (1.6) n (%)
- Supraventricular extrasystoles [4]: 0 n (%)
- Ventricular extrasystoles [4]: 0 n (%)
- Acute coronary syndrome [5]: 1 (0.6) n (%)
- Acute myocardial infarction [5]: 1 (0.6) n (%)
- Angina pectoris [5]: 0 n (%)
- Arrhythmia [5]: 1 (0.6) n (%)
- Arteriosclerosis coronary artery [5]: 1 (0.6) n (%)
- Atrial fibrillation [5]: 2 (1.2) n (%)
- Atrial tachycardia [5]: 0 n (%)
- Cardiomegaly [5]: 0 n (%)
- Cerebral infarction [5]: 1 (0.6) n (%)
- Lacunar infarction [5]: 1 (0.6) n (%)
- Palpitations [5]: 0 n (%)
- Pericardial effusion [5]: 2 (1.2) n (%)
- Retinal-vein occlusion [5]: 2 (1.2) n (%)
- Supraventricular extrasystoles [5]: 0 n (%)
- Ventricular extrasystoles [5]: 0 n (%)
- Acute coronary syndrome [6]: 0 n (%)
- Acute myocardial infarction [6]: 0 n (%)
- Angina pectoris [6]: 0 n (%)
- Arrhythmia [6]: 0 n (%)
- Arteriosclerosis coronary artery [6]: 0 n (%)
- Atrial fibrillation [6]: 3 (7.9) n (%)
- Atrial tachycardia [6]: 0 n (%)
- Cardiomegaly [6]: 0 n (%)
- Cerebral infarction [6]: 0 n (%)
- Lacunar infarction [6]: 0 n (%)
- Palpitations [6]: 1 (2.6) n (%)
- Pericardial effusion [6]: 3 (7.9) n (%)
- Retinal-vein occlusion [6]: 0 n (%)
- Supraventricular extrasystoles [6]: 2 (5.3) n (%)
- Ventricular extrasystoles [6]: 0 n (%)
- Acute coronary syndrome [7]: 1 (0.8) n (%)
- Acute myocardial infarction [7]: 1 (0.8) n (%)
- Angina pectoris [7]: 1 (0.8) n (%)
- Arrhythmia [7]: 1 (0.8) n (%)
- Arteriosclerosis coronary artery [7]: 1 (0.8) n (%)
- Atrial fibrillation [7]: 2 (1.6) n (%)
- Atrial tachycardia [7]: 1 (0.8) n (%)
- Cardiomegaly [7]: 1 (0.8) n (%)
- Cerebral infarction [7]: 1 (0.8) n (%)
- Lacunar infarction [7]: 1 (0.8) n (%)
- Palpitations [7]: 1 (0.8) n (%)
- Pericardial effusion [7]: 11 (8.7) n (%)
- Retinal-vein occlusion [7]: 3 (2.4) n (%)
- Supraventricular extrasystoles [7]: 3 (2.4) n (%)
- Ventricular extrasystoles [7]: 7 (5.5) n (%)
- Acute coronary syndrome [8]: 1 (0.6) n (%)
- Acute myocardial infarction [8]: 1 (0.6) n (%)
- Angina pectoris [8]: 1 (0.6) n (%)
- Arrhythmia [8]: 1 (0.6) n (%)
- Arteriosclerosis coronary artery [8]: 1 (0.6) n (%)
- Atrial fibrillation [8]: 5 (3.0) n (%)
- Atrial tachycardia [8]: 1 (0.6) n (%)
- Cardiomegaly [8]: 1 (0.6) n (%)
- Cerebral infarction [8]: 1 (0.6) n (%)
- Lacunar infarction [8]: 1 (0.6) n (%)
- Palpitations [8]: 2 (1.2) n (%)
- Pericardial effusion [8]: 14 (8.5) n (%)
- Retinal-vein occlusion [8]: 3 (1.8) n (%)
- Supraventricular extrasystoles [8]: 5 (3.0) n (%)
- Ventricular extrasystoles [8]: 7 (4.2) n (%)
